# Source: PubChem BioAssay (NCI)
#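 Grown in 96-well plates, cells were treated for 48 hours with each compound at five concentrations. Insufficient inhibition: endpoint recorded as highest concentration tested. GI50 = concentration required for 50% inhibition of growth. At the TGI there is no net growth.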
# How the values were obtained:
# Experiment in all cases: NCI-60 cell line screen, 48 h
# 786-0 renal = test system: 786-0 renal
# A498 renal = test system: A498 renal
# ACHN renal = test system: ACHN renal
# BT-549 breast = test system: BT-549 breast
# CAKI-1 renal = test system: CAKI-1 renal
# CCRF-CEM leukemia = test system: CCRF-CEM leukemia
# DU-145 prostate = test system: DU-145 prostate
# EKVX NSCLC = test system: EKVX NSCLC
# HCC-2998 colon = test system: HCC-2998 colon
# HCT-116 colon = test system: HCT-116 colon
# HCT-15 colon = test system: HCT-15 colon
# HL-60(TB) leukemia = test system: HL-60(TB) leukemia
# HOP-92 NSCLC = test system: HOP-92 NSCLC
# K-562 leukemia = test system: K-562 leukemia
# KM12 colon = test system: KM12 colon
# MCF7 breast = test system: MCF7 breast
# MDA-MB-231 breast = test system: MDA-MB-231 breast
# MDA-MB-435 = test system: MDA-MB-435
# NCI/ADR-RES ovarian = test system: NCI/ADR-RES ovarian
# OVCAR-4 ovarian = test system: OVCAR-4 ovarian
# OVCAR-5 ovarian = test system: OVCAR-5 ovarian
# PC-3 prostate = test system: PC-3 prostate
# RPMI-8226 leukemia = test system: RPMI-8226 leukemia
# RXF 393 renal = test system: RXF 393 renal
# SF-295 CNS = test system: SF-295 CNS
# SF-539 CNS = test system: SF-539 CNS
# SK-MEL-28 melanoma = test system: SK-MEL-28 melanoma
# SK-MEL-5 melanoma = test system: SK-MEL-5 melanoma
# SK-OV-3 ovarian = test system: SK-OV-3 ovarian
# SN12C renal = test system: SN12C renal
# SNB-19 CNS = test system: SNB-19 CNS
# SNB-75 CNS = test system: SNB-75 CNS
# TK-10 renal = test system: TK-10 renal
# UACC-257 melanoma = test system: UACC-257 melanoma
# UACC-62 melanoma = test system: UACC-62 melanoma
# UO-31 renal = test system: UO-31 renal
smiles,measurement,setting,value
COC[C@]12CCC(C)(C)C[C@H]1C1=CC[C@@H]3[C@@]4(C)CCCNC(C)(C)[C@@H]4CC[C@@]3(C)[C@]1(C)CC2,GI50,786-0 renal,1610 nM
same,TGI,786-0 renal,3300 nM
same,GI50,A498 renal,1710 nM
same,TGI,A498 renal,3230 nM
same,GI50,ACHN renal,1730 nM
same,TGI,ACHN renal,3120 nM
same,GI50,BT-549 breast,1680 nM
same,TGI,BT-549 breast,3110 nM
same,GI50,CAKI-1 renal,1820 nM
same,TGI,CAKI-1 renal,3560 nM
same,GI50,CCRF-CEM leukemia,1260 nM
same,TGI,CCRF-CEM leukemia,3190 nM
same,GI50,DU-145 prostate,1810 nM
same,TGI,DU-145 prostate,3370 nM
same,GI50,EKVX NSCLC,1640 nM
same,TGI,EKVX NSCLC,3120 nM
same,GI50,HCC-2998 colon,1310 nM
same,TGI,HCC-2998 colon,2760 nM
same,GI50,HCT-116 colon,1090 nM
same,TGI,HCT-116 colon,2480 nM
same,GI50,HCT-15 colon,1410 nM
same,TGI,HCT-15 colon,2870 nM
same,GI50,HL-60(TB) leukemia,1430 nM
same,TGI,HL-60(TB) leukemia,3870 nM
same,GI50,HOP-92 NSCLC,1170 nM
same,TGI,HOP-92 NSCLC,2580 nM
same,GI50,K-562 leukemia,350 nM
same,TGI,K-562 leukemia,4650 nM
same,GI50,KM12 colon,1790 nM
same,TGI,KM12 colon,3480 nM
same,GI50,MCF7 breast,1250 nM
same,TGI,MCF7 breast,2820 nM
same,GI50,MDA-MB-231 breast,1890 nM
same,TGI,MDA-MB-231 breast,3620 nM
same,GI50,MDA-MB-435,1660 nM
same,TGI,MDA-MB-435,3130 nM
same,GI50,NCI/ADR-RES ovarian,1730 nM
same,TGI,NCI/ADR-RES ovarian,3480 nM
same,GI50,OVCAR-4 ovarian,1700 nM
same,TGI,OVCAR-4 ovarian,3340 nM
same,GI50,OVCAR-5 ovarian,1670 nM
same,TGI,OVCAR-5 ovarian,3130 nM
same,GI50,PC-3 prostate,1310 nM
same,TGI,PC-3 prostate,2640 nM
same,GI50,RPMI-8226 leukemia,1310 nM
same,TGI,RPMI-8226 leukemia,3650 nM
same,GI50,RXF 393 renal,1370 nM
same,TGI,RXF 393 renal,2880 nM
same,GI50,SF-295 CNS,1730 nM
same,TGI,SF-295 CNS,3210 nM
same,GI50,SF-539 CNS,1560 nM
same,TGI,SF-539 CNS,3050 nM
same,GI50,SK-MEL-28 melanoma,1670 nM
same,TGI,SK-MEL-28 melanoma,3070 nM
same,GI50,SK-MEL-5 melanoma,1580 nM
same,TGI,SK-MEL-5 melanoma,3050 nM
same,GI50,SK-OV-3 ovarian,1800 nM
same,TGI,SK-OV-3 ovarian,3390 nM
same,GI50,SN12C renal,1510 nM
same,TGI,SN12C renal,3070 nM
same,GI50,SNB-19 CNS,1760 nM
same,TGI,SNB-19 CNS,3300 nM
same,GI50,SNB-75 CNS,1530 nM
same,TGI,SNB-75 CNS,3410 nM
same,GI50,TK-10 renal,1810 nM
same,TGI,TK-10 renal,3530 nM
same,GI50,UACC-257 melanoma,1910 nM
same,TGI,UACC-257 melanoma,3820 nM
same,GI50,UACC-62 melanoma,1620 nM
same,TGI,UACC-62 melanoma,3120 nM
same,GI50,UO-31 renal,1410 nM
same,TGI,UO-31 renal,2790 nM
